Where only a bound is given, the exact number is not on record here.

The first assay deals with MV4-11 cells (FLT3-ITD-expressing AML cell line). Put plainly: Cell proliferation inhibition, Alamar Blue. It is filed as cell-based, human. As to conditions: 72 hours of compound treatment, read-out: Cellular (GI50) MV4-11. The method, then: The cell proliferation inhibition experiment on acute myeloid leukemia (AML) cell lines was performed using FL3-ITD-expressing AML cell line MV4-11, BaF3-ITD-FLT3 F691L cell line, and BaF3-ITD-FLT3 D835Y cell line to test FLT3 inhibitory activity. All cell lines were human-derived cell lines, and the sources and culture conditions for each cell line are as follows.
Cell viability was assessed by a resazurin redox-based assay using the Alamar Blue Assay kit (Invitrogen, USA). Specifically, MV4-11, BaF3-ITD-FLT3-F691L, and BaF3-ITD-FLT3-D835Y cells were plated in 384-well plates at 8,000 cells in 45 μL of medium. As a negative control, dimethyl sulfoxide (DMSO) was added together with the compound. After three days (72 hours) of compound treatment, 5 μL of the Alamar Blue kit reagent was added to each well of the 384-well plates, followed by incubation at 37° C. for 2 hours in a humidified CO2 incubator. After incubation, fluorescence intensity (Flu) was measured at 544 nm and 590 nm using a SpectraMax iD3 Multi Mode Microplate Reader (Molecular Devices, ID3-STD).
For the compound `O=C(N[C@@H]1[C@@H]2CNC[C@@H]21)c1ccc2[nH]nc(-c3nc4ccc(N5CCOCC5)cc4[nH]3)c2c1` [Example 71, N-((1R,5S,6r)-3-azabicyclo[3.1.0]hexan-6-yl)-3-(6-morpholino-1H-benzo[d]imidazol-2-yl)-1H-indazole-5-carboxamide], the GI50 was 10 to 100 nM.

Staying with this assay, now noted: Homo sapiens, MV4-11, 72 hours of compound treatment, read-out: Cellular (GI50) MV4-11.
On to `NCCCNC(=O)c1ccc2[nH]nc(-c3ncc(-c4ccc(N5CCOCC5)cc4)[nH]3)c2c1` [Example 90, N-(3-aminopropyl)-3-(5-(4-morpholinophenyl)-1H-imidazol-2-yl)-1H-indazole-5-carboxamide], for which the GI50 lay within 100 to 1000 nM. The same measure, in the same setting: the value for `NCCCCNC(=O)c1ccc2[nH]nc(-c3nc4ccc(F)cc4[nH]3)c2c1` [Example 39, N-(4-aminobutyl)-3-(6-fluoro-1H-benzo[d]imidazol-2-yl)-1H-indazole-5-carboxamide] was 100 to 1000 nM; that for `NCCCNC(=O)c1ccc2[nH]nc(-c3nc4ccc(F)cc4n3CCO)c2c1` [Example 109, N-(3-aminopropyl)-3-(6-fluoro-1-(2-hydroxyethyl)-1H-benzo[d]imidazol-2-yl)-1H-indazole-5-carboxamide] was more than 1000 nM. The same measure, in the same setting: the result for `CS(=O)(=O)NCCNC(=O)c1ccc2[nH]nc(-c3nc(-c4ccccc4)c[nH]3)c2c1` [Example 94, N-(2-(methylsulfonamido)ethyl)-3-(4-phenyl-1H-imidazol-2-yl)-1H-indazole-5-carboxamide] reads more than 1000 nM. On the same count and under the same terms, the result for `O=C(NCCCO)c1ccc2[nH]nc(-c3nc4ccc(F)cc4[nH]3)c2c1` [Example 111, 3-(6-fluoro-1H-benzo[d]imidazol-2-yl)-N-(3-hydroxypropyl)-1H-indazole-5-carboxamide] reads 100 to 1000 nM; that for `NCCCNC(=O)c1ccc2[nH]nc(-c3nc4ccc(Br)cc4[nH]3)c2c1` [Example 28, N-(3-aminopropyl)-3-(6-bromo-1H-benzo[d]imidazol-2-yl)-1H-indazole-5-carboxamide], 10 to 100 nM; that for `CN(C)CCNC(=O)c1ccc2[nH]nc(-c3nc4ccc(N5CCOCC5)cc4[nH]3)c2c1` [Example 62, N-(2-(dimethylamino)ethyl)-3-(6-morpholino-1H-benzo[d]imidazol-2-yl)-1H-indazole-5-carboxamide], less than 10 nM. With `O=C(N[C@@H]1CCCNC1)c1ccc2[nH]nc(-c3nc4ccc(F)cc4[nH]3)c2c1` [Example 41, (R)-3-(6-fluoro-1H-benzo[d]imidazol-2-yl)-N-(piperidin-3-yl)-1H-indazole-5-carboxamide], the GI50 was more than 1000 nM. Still for that read-out and setting: the result for `O=C(c1ccc2[nH]nc(-c3nc4ccc(N5CCOCC5)cc4[nH]3)c2c1)N1C[C@H]2C[C@@H]1CN2` [Example 65, ((1R,4R)-2,5-diazabicyclo[2.2.1]heptan-2-yl)(3-(6-morpholino-1H-benzo[d]imidazol-2-yl)-1H-indazol-5-yl)methanone] reads 10 to 100 nM; that for `NCCCNC(=O)c1ccc2[nH]nc(-c3ncc(-c4ccccc4F)[nH]3)c2c1` [Example 83, N-(3-aminopropyl)-3-(5-(2-fluorophenyl)-1H-imidazol-2-yl)-1H-indazole-5-carboxamide], 10 to 100 nM; that for `O=C(NC1CCNCC1)c1ccc2[nH]nc(-c3nc4ccc(F)cc4[nH]3)c2c1` [Example 40, 3-(6-fluoro-1H-benzo[d]imidazol-2-yl)-N-(piperidin-4-yl)-1H-indazole-5-carboxamide], 10 to 100 nM. Same read-out and setting: the value for `NCCCNC(=O)c1ccc2[nH]nc(-c3ncc(-c4cccc([N+](=O)[O-])c4)[nH]3)c2c1` [Example 89, N-(3-aminopropyl)-3-(5-(3-nitrophenyl)-1H-imidazol-2-yl)-1H-indazole-5-carboxamide] was 100 to 1000 nM; that for `O=C(c1ccc2[nH]nc(-c3nc4ccccc4[nH]3)c2c1)N1CCN(c2ccc(F)cc2)CC1` [Example 3, (3-(1H-benzo[d]imidazol-2-yl)-1H-indazol-5-yl)(4-(4-fluorophenyl)piperazin-1-yl)methanone] was more than 1000 nM.

On to `NCCCNC(=O)c1ccc2[nH]nc(-c3ncc(-c4cccc(F)c4)[nH]3)c2c1` [Example 82, N-(3-aminopropyl)-3-(5-(3-fluorophenyl)-1H-imidazol-2-yl)-1H-indazole-5-carboxamide], for which the GI50 was in the range of 10 to 100 nM. Still for that read-out and setting: the result for `NCCCNC(=O)c1ccc2[nH]nc(-c3ncc(-c4cccc(N5CCOCC5)c4)[nH]3)c2c1` [Example 91, N-(3-aminopropyl)-3-(5-(3-morpholinophenyl)-1H-imidazol-2-yl)-1H-indazole-5-carboxamide] reads 10 to 100 nM; that for `NCCCNC(=O)c1ccc2[nH]nc(-c3ncc(-c4ccc(F)cc4)[nH]3)c2c1` [Example 81, N-(3-aminopropyl)-3-(5-(4-fluorophenyl)-1H-imidazol-2-yl)-1H-indazole-5-carboxamide], 10 to 100 nM. On the same count and under the same terms, the result for `NCCCNC(=O)c1ccc2c(-c3nc4ccc(F)cc4[nH]3)n[nH]c2c1` [Example 110, N-(3-aminopropyl)-3-(6-fluoro-1H-benzo[d]imidazol-2-yl)-1H-indazole-6-carboxamide] reads more than 1000 nM; that for `CN1CCN(C(=O)c2ccc3[nH]nc(-c4nc5ccccc5[nH]4)c3c2)CC1` [Example 2, (3-(1H-benzo[d]imidazol-2-yl)-1H-indazol-5-yl)(4-methylpiperazin-1-yl)methanone], 100 to 1000 nM; that for `CC(=O)N1CC2(C1)CN(C(=O)c1ccc3[nH]nc(-c4nc5ccc(N6CCOCC6)cc5[nH]4)c3c1)C2` [Example 60, 1-(6-(3-(6-morpholino-1H-benzo[d]imidazol-2-yl)-1H-indazole-5-carbonyl)-2,6-diazaspiro[3.3]heptan-2-yl)ethan-1-one], more than 1000 nM.

With `CN1CCN(C(=O)c2ccc3[nH]nc(-c4nc(-c5ccccc5)c[nH]4)c3c2)CC1` [Example 99, (4-methylpiperazin-1-yl)(3-(4-phenyl-1H-imidazol-2-yl)-1H-indazol-5-yl)methanone], the GI50 is more than 1000 nM.

Broadly, the GI50 is the concentration that inhibits growth by half.

The values are drawn from patent publication US20260234129A1, “NOVEL IMIDAZOLE DERIVATIVE AND USE THEREOF” (PELEMED CO., LTD., priority 2023, published 2026).
